# Measurements taken from paper PMC2063203, “The renal effects of the water-soluble, non-folylpolyglutamate synthetase-dependent thymidylate synthase inhibitor ZD9331 in mice” (British Journal of Cancer, 1998).
# Values joined by “and” are separate entries in the source; they are usually repeats but may differ in a detail not shown here. Equal values may be shown once. Read-outs that look alike come from different tables or passages of the source.
# Legend:
# [1] = system: DBA-2 mice; experiment: Glomerular filtration rate (GFR) by [14C]inulin clearance after bolus drug; assay type: in vivo
# Method: (§1) British Journal of Cancer (1998) 78(11), 1457-1463 ? […] In contrast to Tomudex (ZD1694), ZD9331 may therefore be active against tumours with low FPGS activity. […] In view of the history of renal toxicity with some earlier TS inhibitors and the possible therapeutic use of bolus ZD9331, we have examined the effects of bolus ZD9331 dose and route of administration on plasma and kidney pharmacokinetics and renal function in mice. Renal function was assessed by measuring [14C]inulin clearance, and drug concentrations were assayed by reverse-phase high-performance liquid chromatography (HPLC). […] Kidney drug concentrations were slightly elevated in iv.- versus i.p.-treated animals at the low dose (50 mg kg-'), with a correspondingly larger area under the curve. However, at the highest dose (200 mg kg-'), peak kidney drug concentrations were 20-fold higher following i.v. administration than after i.p., with marked kidney retention, resulting in a 50-fold greater kidney drug exposure for the i.v. versus the i.p. route. […] These adverse effects can be readily overcome by i.p. administration, indicating the likely need for short infusions in clinical settings. […] Early studies established that nephrotoxicity may be a result of poor aqueous solubility of 2-amino compounds such as CB3717, and it was shown that 2-desamino CB3717 was more water soluble and less nephrotoxic (Jones et al, 1989; 1996). […] These polyglutamate forms also exibit intra- cellular retention, which may contribute to toxicity as well as anti- tumour activity. […] Such compounds might be expected to show activity in a different spectrum of tumours from ZD1694 and to have a more manageable toxicity profile because of the lack of retained cyto- toxic metabolites. […] MATERIALS AND METHODS Drug administration and animals The compound ZD933 1 (Figure 1) was provided as a white crystalline salt. ['4C]inulin was provided as a carboxylic acid (Amersham, UK, 250 µCi in 5 ml, specific activity 6.6 mCi mmol-') and diluted to an activity of 5 µCi ml-' in phosphate-buffered saline (PBS). ZD9331 was dissolved in 0.05 M sodium bicarbonate, 1457 1458 Ml Walton et al ~~ N Ny~~~14COOHH 0 H IN H N CH ~~~~H , 4 H3C N3 H Figure 1 The chemical structure of ZD9331 adjusted to pH 9.0 and administered either i.v. via the tail vein or i.p. at 0.01 ml g-' mouse body weight. [14C]inulin was administered at 0.05 gCi g-' (i.e. 0.01 ml g-') i.v. via the tail vein. Adult female DBA-2 mice were obtained from OLAC (Bicester, UK) and used at 8-12 weeks of age at a body weight of 15-25 g. Mice were housed in cages containing untreated sawdust and allowed access to food and water ad libitum. Sample preparation Plasma and tissue samples were prepared using standard tech- niques (Walton et al, 1996). Briefly, whole blood was obtained by cardiac puncture into heparinized syringes from halothane- anaesthetized mice. Plasma was prepared by centrifugation at 12 000 r.p.m. x 2 min in a bench-top microcentrifuge. Kidney and liver tissues were rapidly removed, washed and snap frozen on dry ice. Frozen plasma and tissues were stored at -20?C for up to 4 weeks prior to analysis. Individual samples were thawed on ice and handled rapidly. ZD9331 was extracted from whole plasma or tissue homogenates (33% w/v in 0.1 M Tris, pH 10.0) by the addition of an equal volume of acetonitrile, mixing and centrifugation and the super- natant removed for injection into the HPLC system. Samples were diluted with Tris buffer (0.1 M, pH 10.0) on to the linear part of the calibration curve prior to HPLC analysis. Extraction efficiencies were >95%. HPLC analysis Concentrations of ZD9331 were measured in biological samples using reversed phase HPLC on equipment supplied by Kontron (Watford, UK). Separations were carried out using stainless-steel columns heated at 45?C and packed with C18 Supelcosil ODS (10 cm x 4.6 mm, 5 µm bead size, Sigma, Dorset) and protected with NewGuard C18 columns (Anachem, Luton, UK). […]
# [2] = Plasma pharmacokinetics of ZD9331 (HPLC, non-compartmental); assay type: in vivo, mice; conditions: for AUC(0-t): read-out: AUC0-8h; for concentration at 4 h: read-out: plasma drug concentration at 4 h; for Cmax / Tmax: mouse
# Method: as §1
# [3] = system: DBA-2 mice; experiment: Kidney histology (H & E) and immunohistochemical staining for ZD9331; assay type: in vivo
# [4] = system: L5178Y (TK-/-) lymphoma; design: method as in Stephens et al, 1994; Jackman et al, 1997; conditions: ref Stephens et al, 1994, Jackman et al, 1997, cited from earlier work
# [5] = female, ip, plasma, DBA-2 mice, 50 mg kg-1 i.p.
# [6] = female, ip, plasma, DBA-2 mice, 200 mg kg-1 i.p.
# [7] = female, iv, plasma, DBA-2 mice, 50 mg kg-1 i.v. bolus
# [8] = female, iv, plasma, DBA-2 mice, 100 mg kg-1 i.v. bolus
# [9] = female, iv, plasma, DBA-2 mice, 200 mg kg-1 i.v. bolus
smiles,measurement,setting,value
"C#CCN(Cc1cc2c(=O)[nH]c(C)nc2cc1C)c1ccc(C(=O)N[C@@H](CCc2nnn[nH]2)C(=O)O)c(F)c1 [ZD9331, (2S)-2-{O-fluoro-p-(N-(2,7-dimethyl-4-oxo-3,4-dihydroquinazolin-6-ylmethyl)-N-(prop-2-ynyl)amino}benzamido}-4-(tetrazol-5-yl)butyric acid]",effect on renal function (GFR),"[1]; 50 mg kg-1, 4 h after administration",minimal effects on renal function
same,effect on GFR,"[1]; 150 mg kg-1 i.p., 24 h after administration",no effect
same,effect on GFR,"[1]; 150 mg kg-1 i.v., 4 h after administration",slight decrease in GFR
same,effect on GFR,"[1]; 150 mg kg-1 i.v., 24 h after administration",no effect
same,effect on GFR,[1]; 200 mg kg-1 i.p.,minimal
same,effect on GFR,"[1]; 200 mg kg-1 i.v., 4 h after administration",profound decrease in GFR
same,effect on GFR,"[1]; 200 mg kg-1 i.v., 24 h after administration",GFR inhibition was less profound
same,nephrotoxicity,"[1]; active anti-tumour dose, 50 mg kg-1 i.p., mice",non-nephrotoxic
same,effect on renal function (GFR),"[1]; doses up to 150 mg kg-1 i.v. or i.p., 4 or 24 h post treatment",no evidence of compromised renal function
same,peak plasma concentration i.p. as % of i.v.,[2]; 50 mg kg-1,11%
same,peak plasma concentration i.p. as % of i.v.,[2]; 200 mg kg-1,25%
same,AUC(0-t),"[2]; female, DBA-2, mouse, plasma, ip, 50 mg/kg, plasma, DBA-2 mice, 50 mg kg-1 i.p.",90.1 µM·h
same,half-life,"[2]; female, DBA-2, mouse, plasma, ip, 50 mg/kg, plasma, DBA-2 mice, 50 mg kg-1 i.p., read-out: t1/2",93.4 min
same,AUC(0-t),"[2]; female, DBA-2, mouse, plasma, ip, 200 mg/kg, plasma, DBA-2 mice, 200 mg kg-1 i.p.",315 µM·h
same,half-life,"[2]; female, DBA-2, mouse, plasma, ip, 200 mg/kg, plasma, DBA-2 mice, 200 mg kg-1 i.p., read-out: t1/2",99 min
same,bioavailability,"[2]; female, DBA-2, mouse, plasma, ip, 50 mg kg-1, read-out: i.p. bioavailability",80%
same,concentration at 4 h,"[2]; female, DBA-2, mouse, plasma, ip, 50 mg kg-1 i.p.",1000 nM
same,concentration at 4 h,"[2]; female, DBA-2, mouse, plasma, ip, 200 mg kg-1 i.p.",1860 nM
same,AUC(0-t),"[2]; female, DBA-2, mouse, plasma, iv, 50 mg/kg, plasma, DBA-2 mice, 50 mg kg-1 i.v. bolus",75.3 µM·h
same,half-life,"[2]; female, DBA-2, mouse, plasma, iv, 50 mg/kg, plasma, DBA-2 mice, 50 mg kg-1 i.v. bolus, read-out: t1/2 (apparent terminal elimination)",57 min
same,AUC(0-t),"[2]; female, DBA-2, mouse, plasma, iv, 100 mg/kg, plasma, DBA-2 mice, 100 mg kg-1 i.v. bolus",109 µM·h
same,half-life,"[2]; female, DBA-2, mouse, plasma, iv, 100 mg/kg, plasma, DBA-2 mice, 100 mg kg-1 i.v. bolus, read-out: t1/2",91.7 min
same,AUC(0-t),"[2]; female, DBA-2, mouse, plasma, iv, 200 mg/kg, plasma, DBA-2 mice, 200 mg kg-1 i.v. bolus",332 µM·h
same,half-life,"[2]; female, DBA-2, mouse, plasma, iv, 200 mg/kg, plasma, DBA-2 mice, 200 mg kg-1 i.v. bolus, read-out: t1/2",64.5 min
same,concentration at 4 h,"[2]; female, DBA-2, mouse, plasma, iv, 50 mg kg-1 i.v.",1100 nM
same,concentration at 2 min,"[2]; female, DBA-2, mouse, plasma, iv, 100 mg kg-1 i.v., read-out: plasma drug concentration at 2 min",898 µM
same,concentration at 5 min,"[2]; female, DBA-2, mouse, plasma, iv, 100 mg kg-1 i.v., read-out: plasma drug concentration at 5 min",771 µM
same,concentration at 4 h,"[2]; female, DBA-2, mouse, plasma, iv, 200 mg kg-1 i.v.",1300 nM
same,Cmax,[2]; [5],74100 ng/mL and 139 µM
same,Tmax,[2]; [5],10 min
same,Cmax,[2]; [6],483000 ng/mL and 906 µM
same,Tmax,[2]; [6],10 min
same,Cmax,[2]; [7],696000 ng/mL and 1.31 mM
same,Tmax,[2]; [7],1 min
same,Cmax,[2]; [8],708000 ng/mL and 1.32 mM
same,Tmax,[2]; [8],1 min
same,Cmax,[2]; [9],1.9e+06 ng/mL and 3.63 mM
same,Tmax,[2]; [9],1 min
same,relation of plasma drug exposure (AUC) to dose,"[2]; i.p., range 0-200 mg kg-1",linearly related to dose
same,relation of plasma drug exposure (AUC) to dose,"[2]; i.v., up to 200 mg kg-1",marked deviation from linearity at the highest dose
same,peak plasma concentration,"[2]; plasma, 50 mg kg-1 i.v.",1.3 mM
same,i.p. AUC0-8h as % of i.v.,"[2]; plasma, 200 mg kg-1",63%
same,t1/2 (apparent terminal elimination),"[2]; plasma, DBA-2 mice, 50 mg kg-1 i.v. bolus",57.7 min
same,renal histology,"[3]; 200 mg kg-1 i.v., 4 h after","evidence of tubular dilatation (Figure SB), with the presence of fine granular casts in the tubules"
same,drug distribution in kidney tissue (histology with immunohistochemical staining),"[3]; 200 mg kg-1 i.v., data not shown",uniform drug distribution in tissue with no evidence of drug precipitation
same,renal histology,[3]; lower drug doses,some tubular dilatation
same,anti-tumour activity,"[4]; 24-h s.c. infusion, 3 mg kg-1",anti-tumour activity
same,anti-tumour activity,"[4]; bolus administration, 50 mg kg-1",anti-tumour activity
